Data taken from patent US20150148551A1, “GENISTEIN FOR REDUCING LEVELS OF STORAGE COMPOUNDS IN THE TREATMENT AND/OR PREVENTION OF LYSOSOMAL STORAGE DISEASES (LSDS)” (3G THERAPEUTICS, INC., priority 2012, published 2015).

What was measured:
Assay type in all cases: cell-based, human
SMPD1 = assay: DNA microarray, SMPD1 expression in fibroblasts exposed to genistein; settings: for SMPD1 fold change Average: 48 h vs DMSO
Procedure: (§1) The experiments were conducted to characterise the transcriptomic profile of human fibroblast cells exposed to genistein, and in particular to determine the expression of genes encoding lysosomal enzymes involved in metabolism (i.e. synthesis and degradation) of organic substances. The absence or deficiency of these enzymes' activity is responsible for occurrence of various lysosomal storage diseases (LSD) (including MPS). The tested hypothesis assumed that genistein influences the expression of many genes, among which there are genes coding for enzymes required in metabolism of compounds, which are pathologically stored in LSD. The results provide important information regarding genistein action on the molecular level within the range of gene expression modulation by this substance. The experiment was conducted in biological quintuplicates. Human dermal fibroblasts (HDFa) were exposed in vitro for 1, 24 or 48 hours to: 30, 60 or 100 μM of genistein; 0.05% DMSO (K1); or were untreated (control cells) (K2), and total RNA was isolated and analysed.
(§2) Fibroblast cells were grown in Dulbecco (DMEM) medium supplemented with 10% fetal bovine serum (FBS) with the addition of 1% antibiotics and anti-fungal agents at 37° C. in humidified atmosphere of 5% CO2, until the required confluency was obtained.
(§3) To determine the effect of tested compound on the transcriptom of the fibroblast cells, the growth medium was replaced with fresh medium, either non-supplemented (0.05% DMSO), or containing genistein (30, 60 or 100 μM, in 0.05% DMSO). The exposure was done for 1, 24 or 48 hours.
(§4) Total RNA was isolated from fibroblasts using High Pure RNA Isolation Kit according to the protocol and then it was quantitatively evaluated using Quant-It™ RiboGreen® Assay Kit.
(§5) Biotinylated cRNA was prepared using Ambion Total PrepAmp Kit for Illumina arrays.
(§6) Standard hybridization and quantitative image analysis procedures—Illumina hybridization protocol and Illumina scanning protocol, were used.
(§7) Processing of the results was done during data definition, including: background correction (using background subtraction method), normalization (using quantile normalization algorithm with Illumina GenomeStudio software package: gene expression module version 1.9.0) and summarization (using method, which sums the values of signal intensities from a set of probes).

CTNS = assay: DNA microarray, CTNS expression in fibroblasts exposed to genistein; settings: for CTNS fold change Average: 48 h vs DMSO
Procedure: as §1, §2, §3, §4, §5, §6, §7

CLN5 = assay: DNA microarray, CLN5 expression in fibroblasts exposed to genistein; settings: for CLN5 fold change Average: 48 h vs DMSO
Procedure: as §1, §2, §3, §4, §5, §6, §7

O=c1c(-c2ccc(O)cc2)coc2cc(O)cc(O)c12 [genistein, 4′,5,7-trihydroxy-3-phenylchromen-4-one]
SMPD1 fold change Average 1h30/1hK1 (SMPD1; 30 μM, 1 h vs 0.05% DMSO): 1.0078 fold change | SMPD1 fold change Average (SMPD1; 30 μM): 1.2419 fold change | SMPD1 fold change Average 1h60/1hK1 (SMPD1; 60 μM, 1 h vs 0.05% DMSO): 0.9831 fold change | SMPD1 fold change Average (SMPD1; 60 μM): 1.457 fold change | SMPD1 fold change Average 1h100/1hK1 (SMPD1; 100 μM, 1 h vs 0.05% DMSO): 1.012 fold change | SMPD1 fold change Average (SMPD1; 100 μM): 1.673 fold change | CTNS fold change Average 1h30/1hK1 (CTNS; 30 μM, 1 h vs 0.05% DMSO): 1.0024 fold change | CTNS fold change Average (CTNS; 30 μM): 1.5216 fold change | CTNS fold change Average 1h60/1hK1 (CTNS; 60 μM, 1 h vs 0.05% DMSO): 0.7997 fold change | CTNS fold change Average (CTNS; 60 μM): 1.577 fold change | CTNS fold change Average 1h100/1hK1 (CTNS; 100 μM, 1 h vs 0.05% DMSO): 0.7964 fold change | CTNS fold change Average (CTNS; 100 μM): 1.64 fold change | CLN5 fold change Average 1h30/1hK1 (CLN5; 30 μM, 1 h vs 0.05% DMSO): 1.0505 fold change | CLN5 fold change Average (CLN5; 30 μM): 1.3471 fold change | CLN5 fold change Average 1h60/1hK1 (CLN5; 60 μM, 1 h vs 0.05% DMSO): 1.028 fold change | CLN5 fold change Average (CLN5; 60 μM): 1.79 fold change | CLN5 fold change Average 1h100/1hK1 (CLN5; 100 μM, 1 h vs 0.05% DMSO): 1.05 fold change | CLN5 fold change Average (CLN5; 100 μM): 2.125 fold change
